Reference: PMC11480411, “Mucosal sugars delineate pyrazine vs pyrazinone autoinducer signaling in Klebsiella oxytoca” (Nature Communications, 2024)

Assays:
Test in all cases: PRESTO-Tango GPCR screen
Format in all cases: cell-based
Conditions in all cases: 100 µM
[1] = target: T1, SSTR4 (Homo sapiens, UniProt P31391)
T1 construct: purchased PRESTO-Tango GPCR kit (Roth lab / Addgene)
In short: (§1)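 Steps: HTLA cells plated; next day, GPCR-Tango plasmid delivered with polyethylenimine; 16-24 h later, medium swapped for DMEM with 10 mM HEPES plus compound (100 μM final); 20 h later, Bright-Glo added and luminescence measured; fold over PBS computed.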

[2] = target: T2, NPY1R (Homo sapiens, UniProt P25929)
T2 construct: purchased PRESTO-Tango GPCR kit (Roth lab / Addgene)
In short: as §1

[3] = target: T3, GPR21 (Homo sapiens, UniProt Q99679)
T3 construct: purchased PRESTO-Tango GPCR kit (Roth lab / Addgene)
In short: as §1

[4] = target: T4, F2RL2 (Homo sapiens, UniProt O00254)
T4 construct: purchased PRESTO-Tango GPCR kit (Roth lab / Addgene)
T4 sequence (O00254 22-374): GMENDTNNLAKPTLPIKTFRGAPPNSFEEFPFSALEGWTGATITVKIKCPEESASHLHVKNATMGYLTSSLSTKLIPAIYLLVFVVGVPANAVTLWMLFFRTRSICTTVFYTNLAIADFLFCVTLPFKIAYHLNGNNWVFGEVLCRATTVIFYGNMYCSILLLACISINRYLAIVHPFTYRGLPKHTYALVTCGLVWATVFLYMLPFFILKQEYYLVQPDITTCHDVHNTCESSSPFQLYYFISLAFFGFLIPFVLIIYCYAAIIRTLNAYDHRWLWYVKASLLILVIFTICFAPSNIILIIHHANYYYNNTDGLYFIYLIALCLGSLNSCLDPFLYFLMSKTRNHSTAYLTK
In short: as §1

[5] = target: T5, CXCR5 (Homo sapiens, UniProt P32302)
T5 construct: purchased PRESTO-Tango GPCR kit (Roth lab / Addgene)
T5 sequence (P32302 whole entry): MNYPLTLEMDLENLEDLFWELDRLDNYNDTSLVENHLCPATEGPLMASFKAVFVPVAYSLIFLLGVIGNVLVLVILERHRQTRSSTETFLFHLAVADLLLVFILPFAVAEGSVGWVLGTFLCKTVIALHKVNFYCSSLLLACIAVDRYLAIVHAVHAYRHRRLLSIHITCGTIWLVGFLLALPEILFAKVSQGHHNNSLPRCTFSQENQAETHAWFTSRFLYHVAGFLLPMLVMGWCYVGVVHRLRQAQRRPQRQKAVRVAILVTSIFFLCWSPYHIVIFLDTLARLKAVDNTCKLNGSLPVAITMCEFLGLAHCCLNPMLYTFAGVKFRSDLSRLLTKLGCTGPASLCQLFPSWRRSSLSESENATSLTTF
In short: as §1

[6] = target: T6, GPR52 (Homo sapiens, UniProt Q9Y2T5)
T6 construct: purchased PRESTO-Tango GPCR kit (Roth lab / Addgene)
T6 sequence (Q9Y2T5 whole entry): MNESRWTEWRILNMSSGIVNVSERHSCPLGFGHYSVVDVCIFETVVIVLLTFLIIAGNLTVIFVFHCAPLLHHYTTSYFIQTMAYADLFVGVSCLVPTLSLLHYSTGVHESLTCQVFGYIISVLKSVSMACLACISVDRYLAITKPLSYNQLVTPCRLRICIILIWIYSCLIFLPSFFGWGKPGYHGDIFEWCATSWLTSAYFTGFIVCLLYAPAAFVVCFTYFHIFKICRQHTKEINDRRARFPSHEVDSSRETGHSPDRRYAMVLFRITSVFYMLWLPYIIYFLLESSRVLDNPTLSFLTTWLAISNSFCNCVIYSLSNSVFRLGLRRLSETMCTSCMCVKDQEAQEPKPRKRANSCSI
In short: as §1

[7] = target: T7, P2RY14 (Homo sapiens, UniProt Q15391)
T7 construct: purchased PRESTO-Tango GPCR kit (Roth lab / Addgene)
T7 sequence (Q15391 whole entry, one chain of several): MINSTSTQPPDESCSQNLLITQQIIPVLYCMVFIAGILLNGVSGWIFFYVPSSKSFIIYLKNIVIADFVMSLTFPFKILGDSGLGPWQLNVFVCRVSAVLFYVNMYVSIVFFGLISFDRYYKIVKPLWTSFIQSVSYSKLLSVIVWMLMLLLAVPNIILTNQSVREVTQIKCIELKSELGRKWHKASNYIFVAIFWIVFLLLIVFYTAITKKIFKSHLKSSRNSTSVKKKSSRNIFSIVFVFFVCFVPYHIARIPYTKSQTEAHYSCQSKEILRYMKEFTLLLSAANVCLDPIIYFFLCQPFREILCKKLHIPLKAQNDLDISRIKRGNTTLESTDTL
In short: as §1

[8] = target: T8, OPRK1 (Homo sapiens, UniProt P41145)
T8 construct: purchased PRESTO-Tango GPCR kit (Roth lab / Addgene)
In short: as §1

[9] = target: T9, P2RY1 (Homo sapiens, UniProt P47900)
T9 construct: purchased PRESTO-Tango GPCR kit (Roth lab / Addgene)
In short: as §1

[10] = target: T10, CD97 (Homo sapiens, UniProt P48960)
T10 construct: purchased PRESTO-Tango GPCR kit (Roth lab / Addgene)
In short: as §1

[11] = target: T11, GPR15 (Homo sapiens, UniProt P49685)
T11 construct: purchased PRESTO-Tango GPCR kit (Roth lab / Addgene)
T11 sequence (P49685 whole entry): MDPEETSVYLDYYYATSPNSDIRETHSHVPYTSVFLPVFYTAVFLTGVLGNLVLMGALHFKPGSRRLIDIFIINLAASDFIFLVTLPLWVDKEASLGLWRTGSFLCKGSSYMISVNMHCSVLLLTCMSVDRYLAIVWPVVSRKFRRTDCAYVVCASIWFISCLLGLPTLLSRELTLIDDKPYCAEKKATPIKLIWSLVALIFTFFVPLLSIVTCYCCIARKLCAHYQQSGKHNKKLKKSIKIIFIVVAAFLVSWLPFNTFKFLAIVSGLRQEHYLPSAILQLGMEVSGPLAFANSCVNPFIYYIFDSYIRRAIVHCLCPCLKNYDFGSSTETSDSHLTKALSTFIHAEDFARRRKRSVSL
In short: as §1

[12] = target: T12, KISSPEPTIN-R (Homo sapiens, UniProt Q969F8)
T12 construct: purchased PRESTO-Tango GPCR kit (Roth lab / Addgene)
T12 sequence (Q969F8 whole entry): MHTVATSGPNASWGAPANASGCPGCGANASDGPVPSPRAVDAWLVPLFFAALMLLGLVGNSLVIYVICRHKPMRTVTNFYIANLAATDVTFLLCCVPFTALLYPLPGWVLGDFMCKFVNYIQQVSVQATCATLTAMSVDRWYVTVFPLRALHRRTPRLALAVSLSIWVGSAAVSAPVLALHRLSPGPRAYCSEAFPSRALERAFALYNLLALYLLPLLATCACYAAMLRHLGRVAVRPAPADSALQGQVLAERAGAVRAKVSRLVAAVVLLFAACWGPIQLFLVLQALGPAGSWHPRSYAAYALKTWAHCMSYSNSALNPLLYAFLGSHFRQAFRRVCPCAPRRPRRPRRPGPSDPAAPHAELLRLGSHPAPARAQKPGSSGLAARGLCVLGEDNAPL
In short: as §1

[13] = target: T13, GPR37L1 (Homo sapiens, UniProt O60883)
T13 construct: purchased PRESTO-Tango GPCR kit (Roth lab / Addgene)
In short: as §1

[14] = target: T14, GPR61 (Homo sapiens, UniProt Q9BZJ8)
T14 construct: purchased PRESTO-Tango GPCR kit (Roth lab / Addgene)
T14 sequence (Q9BZJ8 whole entry): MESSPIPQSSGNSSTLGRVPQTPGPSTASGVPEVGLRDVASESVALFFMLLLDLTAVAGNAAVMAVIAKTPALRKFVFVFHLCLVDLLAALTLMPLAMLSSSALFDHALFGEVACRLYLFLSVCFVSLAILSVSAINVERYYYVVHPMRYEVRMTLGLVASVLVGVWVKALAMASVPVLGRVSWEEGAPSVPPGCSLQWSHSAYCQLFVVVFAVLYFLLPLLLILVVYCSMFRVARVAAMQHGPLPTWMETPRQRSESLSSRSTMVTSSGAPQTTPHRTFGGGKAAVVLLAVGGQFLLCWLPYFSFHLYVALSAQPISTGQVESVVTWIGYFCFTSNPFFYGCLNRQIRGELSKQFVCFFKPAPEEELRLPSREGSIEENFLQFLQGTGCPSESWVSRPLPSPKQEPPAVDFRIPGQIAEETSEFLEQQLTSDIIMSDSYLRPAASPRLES
In short: as §1

[15] = target: T15, GPR78 (Homo sapiens, UniProt Q96P69)
T15 construct: purchased PRESTO-Tango GPCR kit (Roth lab / Addgene)
In short: as §1

[16] = target: T16, FPR1 (Homo sapiens, UniProt P21462)
T16 construct: purchased PRESTO-Tango GPCR kit (Roth lab / Addgene)
In short: as §1

[17] = target: T17, ELTD1 (Homo sapiens, UniProt Q9HBW9)
T17 construct: purchased PRESTO-Tango GPCR kit (Roth lab / Addgene)
In short: as §1

[18] = target: T18, HTR4 (Homo sapiens, UniProt Q13639)
T18 construct: purchased PRESTO-Tango GPCR kit (Roth lab / Addgene)
In short: as §1

[19] = target: T19, TSHR (Homo sapiens, UniProt P16473)
T19 construct: purchased PRESTO-Tango GPCR kit (Roth lab / Addgene)
In short: as §1

[20] = target: T20, CMKLR1 (Homo sapiens, UniProt Q99788)
T20 construct: purchased PRESTO-Tango GPCR kit (Roth lab / Addgene)
In short: as §1

[21] = target: T21, CXCR3 (Homo sapiens, UniProt P49682)
T21 construct: purchased PRESTO-Tango GPCR kit (Roth lab / Addgene)
T21 sequence (P49682 whole entry): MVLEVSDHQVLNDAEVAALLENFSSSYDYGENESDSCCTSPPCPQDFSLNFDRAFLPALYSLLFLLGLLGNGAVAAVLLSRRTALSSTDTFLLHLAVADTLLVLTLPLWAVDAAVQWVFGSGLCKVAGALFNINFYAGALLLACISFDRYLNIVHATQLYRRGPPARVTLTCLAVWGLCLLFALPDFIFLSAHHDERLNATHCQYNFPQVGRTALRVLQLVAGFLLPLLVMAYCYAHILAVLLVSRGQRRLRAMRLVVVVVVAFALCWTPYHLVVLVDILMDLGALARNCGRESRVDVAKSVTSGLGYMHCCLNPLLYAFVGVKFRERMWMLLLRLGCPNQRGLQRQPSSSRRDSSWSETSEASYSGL
In short: as §1

[22] = target: T22, HTR5 (Homo sapiens, UniProt P47898)
T22 construct: purchased PRESTO-Tango GPCR kit (Roth lab / Addgene)
In short: as §1

[23] = target: T23, GPR157 (Homo sapiens, UniProt Q5UAW9)
T23 construct: purchased PRESTO-Tango GPCR kit (Roth lab / Addgene)
In short: as §1

[24] = target: T24, CHRM1 (Homo sapiens, UniProt P11229)
T24 construct: purchased PRESTO-Tango GPCR kit (Roth lab / Addgene)
In short: as §1

[25] = target: T25, BDKBR1 (Homo sapiens, UniProt P46663)
T25 construct: purchased PRESTO-Tango GPCR kit (Roth lab / Addgene)
T25 sequence (P46663 whole entry): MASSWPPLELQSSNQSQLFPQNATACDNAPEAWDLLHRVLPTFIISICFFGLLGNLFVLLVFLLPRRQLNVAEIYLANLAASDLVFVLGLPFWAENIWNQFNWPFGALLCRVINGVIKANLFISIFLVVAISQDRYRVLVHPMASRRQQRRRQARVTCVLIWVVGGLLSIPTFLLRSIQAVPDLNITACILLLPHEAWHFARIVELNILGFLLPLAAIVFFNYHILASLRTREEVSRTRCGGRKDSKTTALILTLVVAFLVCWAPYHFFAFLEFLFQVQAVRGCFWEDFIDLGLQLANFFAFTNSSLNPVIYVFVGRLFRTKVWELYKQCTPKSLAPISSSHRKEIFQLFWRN
In short: as §1

[26] = target: T26, GPRC5A (Homo sapiens, UniProt Q8NFJ5)
T26 construct: purchased PRESTO-Tango GPCR kit (Roth lab / Addgene)
In short: as §1

[27] = target: T27, ADRA1D (Homo sapiens, UniProt P25100)
T27 construct: purchased PRESTO-Tango GPCR kit (Roth lab / Addgene)
In short: as §1

[28] = target: T28, AGTR1 (Homo sapiens, UniProt P30556)
T28 construct: purchased PRESTO-Tango GPCR kit (Roth lab / Addgene)
T28 sequence (P30556 whole entry): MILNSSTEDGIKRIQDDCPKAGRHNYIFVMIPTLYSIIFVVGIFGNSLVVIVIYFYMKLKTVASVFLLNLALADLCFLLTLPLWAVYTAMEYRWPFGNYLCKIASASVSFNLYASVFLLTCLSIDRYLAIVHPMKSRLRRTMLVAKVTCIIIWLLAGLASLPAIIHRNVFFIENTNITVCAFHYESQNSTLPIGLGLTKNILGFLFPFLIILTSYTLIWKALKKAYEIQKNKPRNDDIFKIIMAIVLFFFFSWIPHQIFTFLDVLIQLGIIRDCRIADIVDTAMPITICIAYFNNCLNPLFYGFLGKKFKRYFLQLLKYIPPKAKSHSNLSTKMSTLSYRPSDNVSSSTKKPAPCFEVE
In short: as §1

[29] = target: T29, MAS1 (Homo sapiens, UniProt P04201)
T29 construct: purchased PRESTO-Tango GPCR kit (Roth lab / Addgene)
T29 sequence (P04201 whole entry): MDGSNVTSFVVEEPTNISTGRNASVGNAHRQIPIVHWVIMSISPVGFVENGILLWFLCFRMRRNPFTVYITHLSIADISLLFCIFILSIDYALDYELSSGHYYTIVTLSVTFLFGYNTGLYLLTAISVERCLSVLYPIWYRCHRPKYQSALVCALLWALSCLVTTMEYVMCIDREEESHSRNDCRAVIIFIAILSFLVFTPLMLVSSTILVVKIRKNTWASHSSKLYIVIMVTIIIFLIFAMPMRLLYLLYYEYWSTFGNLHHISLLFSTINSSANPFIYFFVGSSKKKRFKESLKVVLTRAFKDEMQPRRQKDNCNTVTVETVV
In short: as §1

[30] = target: T30, TAAR8 (Homo sapiens, UniProt Q969N4)
T30 construct: purchased PRESTO-Tango GPCR kit (Roth lab / Addgene)
In short: as §1

[31] = target: T31, P2RY10 (Homo sapiens, UniProt O00398)
T31 construct: purchased PRESTO-Tango GPCR kit (Roth lab / Addgene)
T31 sequence (O00398 whole entry, one chain of several): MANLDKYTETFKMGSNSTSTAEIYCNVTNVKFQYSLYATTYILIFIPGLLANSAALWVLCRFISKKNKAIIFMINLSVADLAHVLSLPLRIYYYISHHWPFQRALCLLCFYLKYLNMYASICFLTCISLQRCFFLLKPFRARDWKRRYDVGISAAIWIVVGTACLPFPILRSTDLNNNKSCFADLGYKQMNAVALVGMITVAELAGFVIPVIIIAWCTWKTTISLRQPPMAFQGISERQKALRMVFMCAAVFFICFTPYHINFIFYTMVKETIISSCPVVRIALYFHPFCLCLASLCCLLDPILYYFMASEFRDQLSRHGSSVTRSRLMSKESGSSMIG
In short: as §1

[32] = target: T32, FSHR (Homo sapiens, UniProt P23945)
T32 construct: purchased PRESTO-Tango GPCR kit (Roth lab / Addgene)
In short: as §1

[33] = target: T33, NPBW2 (Homo sapiens, UniProt P48146)
T33 construct: purchased PRESTO-Tango GPCR kit (Roth lab / Addgene)
T33 sequence (P48146 whole entry): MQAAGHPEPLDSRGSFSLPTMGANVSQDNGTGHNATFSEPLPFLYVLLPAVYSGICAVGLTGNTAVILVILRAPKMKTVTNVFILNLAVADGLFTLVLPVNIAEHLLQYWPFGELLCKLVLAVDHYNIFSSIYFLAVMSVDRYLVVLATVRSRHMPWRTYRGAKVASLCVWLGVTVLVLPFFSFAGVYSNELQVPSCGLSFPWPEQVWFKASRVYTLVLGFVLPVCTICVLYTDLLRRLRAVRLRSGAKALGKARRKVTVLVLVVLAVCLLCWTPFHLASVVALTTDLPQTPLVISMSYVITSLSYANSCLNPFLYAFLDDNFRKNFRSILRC
In short: as §1

[34] = target: T34, NPY5R (Homo sapiens, UniProt Q15761)
T34 construct: purchased PRESTO-Tango GPCR kit (Roth lab / Addgene)
In short: as §1

[35] = target: T35, FFA2 (Homo sapiens, UniProt O15552)
T35 construct: purchased PRESTO-Tango GPCR kit (Roth lab / Addgene)
In short: as §1

Compound: CC(C)Cc1ncc(CCCCNC(=N)N)[nH]c1=O [3-Homo]
- GPCR activation (heatmap value) [1]: 0.2411
- GPCR activation (heatmap value) [2]: -1.44
- GPCR activation (heatmap value) [3]: 0.4357
- GPCR activation (heatmap value) [4]: -0.002642
- GPCR activation (heatmap value) [5]: -0.9057
- GPCR activation (heatmap value) [6]: 0.2473
- GPCR activation (heatmap value) [7]: 0.07991
- GPCR activation (heatmap value) [8]: -0.1244
- GPCR activation (heatmap value) [9]: 0.7917
- GPCR activation (heatmap value) [10]: 0.04802
- GPCR activation (heatmap value) [11]: -0.3204
- GPCR activation (heatmap value) [12]: 1.206
- GPCR activation (heatmap value) [13]: 0.03037
- GPCR activation (heatmap value) [14]: 1.164
- GPCR activation (heatmap value) [15]: -0.4102
- GPCR activation (heatmap value) [16]: -1.272
- GPCR activation (heatmap value) [17]: 0.08719
- GPCR activation (heatmap value) [18]: -0.1279
- GPCR activation (heatmap value) [19]: -0.3975
- GPCR activation (heatmap value) [20]: -1.034
- GPCR activation (heatmap value) [21]: 0.846
- GPCR activation (heatmap value) [22]: 0.4039
- GPCR activation (heatmap value) [23]: 0.207
- GPCR activation (heatmap value) [24]: -1.546
- GPCR activation (heatmap value) [25]: -0.9993
- GPCR activation (heatmap value) [26]: 0.04883
- GPCR activation (heatmap value) [27]: 0.4606
- GPCR activation (heatmap value) [28]: 0.01764
- GPCR activation (heatmap value) [29]: 0.05755
- GPCR activation (heatmap value) [30]: -0.2862
- GPCR activation (heatmap value) [31]: -0.398
- GPCR activation (heatmap value) [32]: -0.01288
- GPCR activation (heatmap value) [33]: -0.3796
- GPCR activation (heatmap value) [34]: -0.26
- GPCR activation (heatmap value) [35]: -0.3322

Compound: CC(C)Cc1ncc(CCCNC(=N)N)[nH]c1=O [compound 3]
- GPCR activation (heatmap value) [1]: -0.01818
- GPCR activation (heatmap value) [2]: -0.2056
- GPCR activation (heatmap value) [3]: 1.034
- GPCR activation (heatmap value) [4]: 0.07678
- GPCR activation (heatmap value) [5]: 0.2848
- GPCR activation (heatmap value) [6]: 0.9036
- GPCR activation (heatmap value) [7]: 0.6085
- GPCR activation (heatmap value) [8]: 0.02999
- GPCR activation (heatmap value) [9]: 0.6628
- GPCR activation (heatmap value) [10]: 0.5
- GPCR activation (heatmap value) [11]: -0.8181
- GPCR activation (heatmap value) [12]: 0.3199
- GPCR activation (heatmap value) [13]: -0.6695
- GPCR activation (heatmap value) [14]: 0.4932
- GPCR activation (heatmap value) [15]: -0.2783
- GPCR activation (heatmap value) [16]: 0.7196
- GPCR activation (heatmap value) [17]: 0.3234
- GPCR activation (heatmap value) [18]: -1.236
- GPCR activation (heatmap value) [19]: 0.2016
- GPCR activation (heatmap value) [20]: 0.8088
- GPCR activation (heatmap value) [21]: 0.3957
- GPCR activation (heatmap value) [22]: -0.08015
- GPCR activation (heatmap value) [23]: 0.4215
- GPCR activation (heatmap value) [24]: -1.184
- GPCR activation (heatmap value) [25]: -0.1783
- GPCR activation (heatmap value) [26]: -0.3148
- GPCR activation (heatmap value) [27]: -0.2106
- GPCR activation (heatmap value) [28]: 0.0619
- GPCR activation (heatmap value) [29]: 0.09111
- GPCR activation (heatmap value) [30]: 0.314
- GPCR activation (heatmap value) [31]: -0.2181
- GPCR activation (heatmap value) [32]: 0.2361
- GPCR activation (heatmap value) [33]: -0.2074
- GPCR activation (heatmap value) [34]: 0.08813
- GPCR activation (heatmap value) [35]: -0.009625
